Reference: PMC3961306, “Comparison of the Cancer Gene Targeting and Biochemical Selectivities of All Targeted Kinase Inhibitors Approved for Clinical Use” (PLoS ONE, 2014)

Assays:
Assay in all cases: Kinase profiling in a biochemical assay panel (mobility shift assays and ELISA), %-inhibition at 1 μM; selectivity entropy
[1] = biological target: T1, panel of more than 300 wild-type and mutant kinases (313 kinase panel) (Homo sapiens, UniProt Q08881); details: kinase ITK; compound at 1 μM
T1 sequence (Q08881 1-620): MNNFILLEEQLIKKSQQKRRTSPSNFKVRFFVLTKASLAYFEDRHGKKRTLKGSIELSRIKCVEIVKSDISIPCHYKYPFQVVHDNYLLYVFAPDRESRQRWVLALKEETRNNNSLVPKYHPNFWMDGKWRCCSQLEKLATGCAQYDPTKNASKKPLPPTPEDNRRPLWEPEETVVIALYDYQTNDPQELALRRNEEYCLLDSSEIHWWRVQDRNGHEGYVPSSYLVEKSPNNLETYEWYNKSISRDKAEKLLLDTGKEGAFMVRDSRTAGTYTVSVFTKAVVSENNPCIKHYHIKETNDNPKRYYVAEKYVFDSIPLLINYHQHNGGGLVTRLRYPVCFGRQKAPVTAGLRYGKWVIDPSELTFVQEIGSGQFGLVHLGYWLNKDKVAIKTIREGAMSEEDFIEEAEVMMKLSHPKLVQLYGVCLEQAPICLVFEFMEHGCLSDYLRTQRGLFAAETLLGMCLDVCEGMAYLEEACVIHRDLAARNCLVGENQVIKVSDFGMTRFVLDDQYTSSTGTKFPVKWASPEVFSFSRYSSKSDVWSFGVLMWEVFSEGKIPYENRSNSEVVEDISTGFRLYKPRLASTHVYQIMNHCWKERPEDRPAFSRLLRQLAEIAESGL

[2] = biological target: panel of more than 300 wild-type and mutant kinases (313 kinase panel) (Homo sapiens, UniProt Q7KZI7); details: kinase MARK2; compound at 1 μM
[3] = biological target: T2, panel of more than 300 wild-type and mutant kinases (313 kinase panel) (Homo sapiens, UniProt Q9Y2U5); details: kinase MAP3K2; compound at 1 μM
T2 sequence (Q9Y2U5 1-619): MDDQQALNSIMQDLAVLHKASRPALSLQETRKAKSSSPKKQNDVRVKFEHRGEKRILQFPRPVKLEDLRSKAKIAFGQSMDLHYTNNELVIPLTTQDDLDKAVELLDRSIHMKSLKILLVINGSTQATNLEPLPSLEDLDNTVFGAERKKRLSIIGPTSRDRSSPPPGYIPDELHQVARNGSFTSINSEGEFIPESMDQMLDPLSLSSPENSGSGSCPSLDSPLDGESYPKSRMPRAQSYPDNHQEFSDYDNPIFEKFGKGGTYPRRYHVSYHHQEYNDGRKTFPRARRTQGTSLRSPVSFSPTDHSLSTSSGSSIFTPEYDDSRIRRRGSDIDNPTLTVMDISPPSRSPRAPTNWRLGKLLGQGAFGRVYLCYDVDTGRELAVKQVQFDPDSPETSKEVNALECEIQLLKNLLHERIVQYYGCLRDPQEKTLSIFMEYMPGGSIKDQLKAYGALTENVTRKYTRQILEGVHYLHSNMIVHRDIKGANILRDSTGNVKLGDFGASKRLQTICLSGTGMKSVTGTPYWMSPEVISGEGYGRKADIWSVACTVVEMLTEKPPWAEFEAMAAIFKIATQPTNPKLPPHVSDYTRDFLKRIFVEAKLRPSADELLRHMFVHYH

[4] = biological target: T3, panel of more than 300 wild-type and mutant kinases (313 kinase panel) (Homo sapiens, UniProt Q9NWZ3); details: kinase IRAK4; compound at 1 μM
T3 sequence (Q9NWZ3 1-460): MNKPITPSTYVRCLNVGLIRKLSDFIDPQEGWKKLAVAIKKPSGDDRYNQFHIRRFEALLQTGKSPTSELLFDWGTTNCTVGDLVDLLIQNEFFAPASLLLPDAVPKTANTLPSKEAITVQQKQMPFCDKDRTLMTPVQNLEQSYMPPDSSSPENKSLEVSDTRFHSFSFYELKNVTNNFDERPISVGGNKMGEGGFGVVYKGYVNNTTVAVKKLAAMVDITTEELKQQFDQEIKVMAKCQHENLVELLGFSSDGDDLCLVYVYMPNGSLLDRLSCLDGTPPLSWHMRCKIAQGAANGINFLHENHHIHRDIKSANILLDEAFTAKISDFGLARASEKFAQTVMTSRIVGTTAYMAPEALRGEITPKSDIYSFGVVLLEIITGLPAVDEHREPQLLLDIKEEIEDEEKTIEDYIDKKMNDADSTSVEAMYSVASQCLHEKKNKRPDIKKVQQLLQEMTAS

[5] = biological target: panel of more than 300 wild-type and mutant kinases (313 kinase panel) (Homo sapiens, UniProt O96013); details: kinase PAK4; 1 μM
[6] = biological target: panel of more than 300 wild-type and mutant kinases (313 kinase panel) (Homo sapiens, UniProt Q02763); details: kinase TIE2; 1 μM
panel of more than 300 wild-type and mutant kinases (313 kinase panel) (Homo sapiens, UniProt Q02763), sequence (Q02763 23-1124, change not shown): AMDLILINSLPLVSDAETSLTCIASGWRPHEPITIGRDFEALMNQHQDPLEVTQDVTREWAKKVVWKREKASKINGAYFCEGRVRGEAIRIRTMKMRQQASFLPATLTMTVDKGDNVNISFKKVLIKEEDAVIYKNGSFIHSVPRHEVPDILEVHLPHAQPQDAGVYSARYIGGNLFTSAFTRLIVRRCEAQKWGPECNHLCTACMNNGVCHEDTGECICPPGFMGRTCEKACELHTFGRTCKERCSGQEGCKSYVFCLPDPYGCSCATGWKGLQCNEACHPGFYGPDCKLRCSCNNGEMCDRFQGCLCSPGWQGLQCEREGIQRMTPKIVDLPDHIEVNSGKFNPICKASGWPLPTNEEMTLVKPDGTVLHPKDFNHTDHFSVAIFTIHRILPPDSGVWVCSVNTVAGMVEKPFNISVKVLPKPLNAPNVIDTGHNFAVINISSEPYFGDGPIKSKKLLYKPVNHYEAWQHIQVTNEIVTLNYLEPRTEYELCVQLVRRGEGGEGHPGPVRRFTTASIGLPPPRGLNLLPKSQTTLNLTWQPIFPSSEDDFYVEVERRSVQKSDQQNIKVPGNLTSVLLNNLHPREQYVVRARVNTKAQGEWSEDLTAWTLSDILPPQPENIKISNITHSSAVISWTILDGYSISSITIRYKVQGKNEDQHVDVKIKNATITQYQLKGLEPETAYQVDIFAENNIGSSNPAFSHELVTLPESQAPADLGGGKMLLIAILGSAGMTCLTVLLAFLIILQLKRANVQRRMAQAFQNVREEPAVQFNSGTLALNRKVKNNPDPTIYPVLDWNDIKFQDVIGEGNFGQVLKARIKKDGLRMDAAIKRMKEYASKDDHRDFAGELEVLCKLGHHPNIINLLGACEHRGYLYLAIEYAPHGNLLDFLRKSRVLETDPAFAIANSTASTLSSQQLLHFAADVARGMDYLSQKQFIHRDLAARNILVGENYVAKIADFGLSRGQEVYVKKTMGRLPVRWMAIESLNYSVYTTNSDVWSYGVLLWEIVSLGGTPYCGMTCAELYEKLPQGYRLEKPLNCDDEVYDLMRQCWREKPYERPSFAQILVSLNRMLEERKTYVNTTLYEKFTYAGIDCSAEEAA

CCCS(=O)(=O)Nc1ccc(F)c(C(=O)c2c[nH]c3ncc(-c4ccc(Cl)cc4)cc23)c1F [vemurafenib]
%-inhibition of ITK [1]: 3% | %-inhibition of MARK2 [2]: -0.167% | %-inhibition of MAP3K2 [3]: 21% | %-inhibition of IRAK4 [4]: -4.29% | %-inhibition of PAK4 [5]: -7% | %-inhibition of TIE2 [6]: -2.42%
